Reference: US11136347B2, “Crystalline forms of a fatty acid bile acid conjugate, preparation method thereof and use thereof” (Crystal Pharmaceutical (Suzhou) Co., Ltd., priority 2017, dated 2021)

Columns and labels:
Format in all cases: physicochemical
[1] = Hygroscopicity study by dynamic vapor sorption (DVS); conditions: for The definition of hygroscopicity: Chinese Pharmacopoeia 2015 edition, 25° C. +/−1° C.; for The definition of hygroscopicity / Weight gain under 80% Relative Humidity: 80% RH; for Weight gain under 80% Relative Humidity: DVS
Procedure: Dynamic vapor sorption (DVS) was applied to test hygroscopicity of Form CS3 and the solid disclosed in CN100386339C with about 15 mg of samples. […] DVS plot of test hygroscopicity of Form CS3 is depicted in FIG. 1G. What's more, the crystalline form of Form CS3 didn't change after DVS test, which is depicted in FIG. 1H.
(§1) Dynamic vapor sorption (DVS) was applied to test hygroscopicity of Form CS2 with about 10 mg of samples. […] As depicted in FIG. 1I, weight gain of the solid disclosed in prior art under 80% RH is 2.44%. The hygroscopicity of Form CS2 is lower than that of prior art.
Dynamic vapor sorption (DVS) was applied to test hygroscopicity of Form CS5 with about 8 mg of samples. […] As depicted in FIG. 1I, weight gain of the solid disclosed in prior art under 80% RH is 2.44%. The hygroscopicity of Form CS5 is lower than that of prior art.
as §1, with “CS8” for “CS2”, “7” for “10”, “sample.” for “samples.”, “art. […] The XRPD patterns before and after DVS were shown in FIG. 4F, top: the XRPD pattern before DVS; bottom: XRPD pattern after DVS.” for “art.”

[2] = Particle size distribution (Microtrac S3500 laser particle size analyzer, wet mode); conditions: after ultrasonication for 30 seconds, dispersion medium Isopar G
Procedure: The particle size distribution data in the present disclosure were acquired by an S3500 laser particle size analyzer of Microtrac. Microtrac S3500 is equipped with an SDC (Sample Delivery Controller). The test was carried out in wet mode, and the dispersion medium is Isopar G. The parameters are as follows:
(§2) The particle size distribution of Form CS3 and the solid disclosed in CN100386339C were tested after ultrasonication for 30 seconds. The average particle size of Form CS3 is 26.3 μm, and D90 is 62.8 μm. The average particle size and D90 of the solid disclosed in prior art are 452.5 μm and 870.3 μm. Compared with prior art, Form CS3 has smaller particle size, which increases the specific surface area of the drug substance, improves the dissolution rate of drug, thereby facilitating drug absorption and further improving the bioavailability of the drug.
as §2, with “Form CS2” for “Form CS3”, “seconds. An” for “seconds. The”, “is 41.9” for “is 26.3”, “is 87.5 μm, while the” for “is 62.8 μm. The”

[3] = Stability study: storage in open dishes, crystalline form checked by XRPD; conditions: for Form change: XRPD
Procedure: Solid samples of Form CS3 were stored under different conditions of 25° C./60% RH and 40° C./75% RH in open dishes for one year. Crystalline form was checked by XRPD.
Form CS8 were stored in open dishes under 25° C./60% RH, 40° C./75% RH and 60° C./75% RH conditions for three weeks, and sampled for XRPD test.

[4] = listed as solid disclosed in prior art

Weight gain under 80% Relative Humidity [1] [%]	D10 [2] [μm]	D50 [2] [μm]	D90 [2] [μm]	MV (average particle diameter calculated by volume) [2] [μm]	Form change before and after DVS test (XRPD) [1]	Time for which the crystalline form doesn't change (stable) ([3]; 25° C./60% RH)	Time for which the crystalline form doesn't change (stable) ([3]; 40° C./75% RH)	Time for which the crystalline form doesn't change (stable) ([3]; 60° C./75% RH)	Compound	The definition of hygroscopicity [1]	also measured
0.15	2.0	12.3	62.8	26.3	didn't change	at least 3 weeks	at least 3 weeks	at least 3 weeks	CCCCCCCCCCCCCCCCCCCC(=O)N[C@H]1CC[C@@]2(C)[C@@H](C1)C[C@@H](O)[C@@H]1[C@@H]2C[C@H](O)[C@]2(C)[C@@H]([C@H](C)CCC(=O)O)CC[C@@H]12 [Form CS3, 3β-arachidylamido-7α,12α-dihydroxy-5β-cholan-24-oic acid]	–	Form change ([3]; 25° C./60% RH, one year): No form change; Form change ([3]; 40° C./75% RH, one year): No form change
0.46	9.7	27.9	87.5	41.9	No form change	at least 3 weeks	at least 3 weeks	at least 3 weeks	CCCCCCCCCCCCCCCCCCCC(=O)N[C@H]1CC[C@@]2(C)[C@@H](C1)C[C@@H](O)[C@@H]1[C@@H]2C[C@H](O)[C@]2(C)[C@@H]([C@H](C)CCC(=O)O)CC[C@@H]12 [Form CS2, 3β-arachidylamido-7α,12α-dihydroxy-5β-cholan-24-oic acid]	slightly hygroscopic (Increase in mass is less than 2 percent and equal to or greater than 0.2 percent)	–

Continued, compound first:

Compound	Weight gain under 80% Relative Humidity [1] [%]	D10 [2] [μm]	D50 [2] [μm]	D90 [2] [μm]	MV (average particle diameter calculated by volume) [2] [μm]	Form change before and after DVS test (XRPD) [1]	Time for which the crystalline form doesn't change (stable) ([3]; 25° C./60% RH)	Time for which the crystalline form doesn't change (stable) ([3]; 40° C./75% RH)	Time for which the crystalline form doesn't change (stable) ([3]; 60° C./75% RH)	The definition of hygroscopicity [1]	also measured
CCCCCCCCCCCCCCCCCCCC(=O)N[C@H]1CC[C@@]2(C)[C@@H](C1)C[C@@H](O)[C@@H]1[C@@H]2C[C@H](O)[C@]2(C)[C@@H]([C@H](C)CCC(=O)O)CC[C@@H]12 [Solid disclosed in CN100386339C, 3β-arachidylamido-7α,12α-dihydroxy-5β-cholan-24-oic acid, reference compound]	2.44	95.0	398.8	870.3	452.5	–	–	–	–	–	The definition of hygroscopicity [1, 4]: hygroscopic (Increase in mass is less than 15 percent and equal to or greater than 2 percent); Weight gain under 80% Relative Humidity ([1]; listed as amorphous solid): 2.44%; Weight gain under 80% Relative Humidity [1, 4]: 2.44%; Weight gain under 80% Relative Humidity ([1]; listed as solid of prior art): 2.44%; D90 ([2]; listed as prior art): 870.3 μm; MV (average particle diameter calculated by volume) ([2]; listed as prior art): 452.5 μm; D90 [2, 4]: 870.3 μm; MV (average particle diameter calculated by volume) [2, 4]: 452.5 μm
CCCCCCCCCCCCCCCCCCCC(=O)N[C@H]1CC[C@@]2(C)[C@@H](C1)C[C@@H](O)[C@@H]1[C@@H]2C[C@H](O)[C@]2(C)[C@@H]([C@H](C)CCC(=O)O)CC[C@@H]12 [Form CS5, 3β-arachidylamido-7α,12α-dihydroxy-5β-cholan-24-oic acid]	0.35	–	–	–	75.6	No form change	at least 3 weeks	at least 3 weeks	at least 3 weeks	slightly hygroscopic (Increase in mass is less than 2 percent and equal to or greater than 0.2 percent)	–
CCCCCCCCCCCCCCCCCCCC(=O)N[C@H]1CC[C@@]2(C)[C@@H](C1)C[C@@H](O)[C@@H]1[C@@H]2C[C@H](O)[C@]2(C)[C@@H]([C@H](C)CCC(=O)O)CC[C@@H]12 [Form CS8, 3β-arachidylamido-7α,12α-dihydroxy-5β-cholan-24-oic acid]	0.40	–	–	–	–	No form change	–	–	–	–	Form change ([3]; 25° C./60% RH, three weeks): no form change; Form change ([3]; 40° C./75% RH, three weeks): no form change; Form change ([3]; 60° C./75% RH, three weeks): no form change
